The NIST ThermoML archive (doi:10.1021/je060170c)
Several values for one entry are separate records, joined by “and”; a condition that tells them apart may be missing. Equal entries are not always repeated. Numbers after ± are expanded uncertainties.

Key:
[1] = 101 kPa, Liquid; for viscosity: Anton Paar Stabinger viscometer
[2] = xn = mol fraction of the nth substance listed; conditions: 101 kPa, Liquid; for viscosity: Anton Paar Stabinger viscometer

| Structure (SMILES) | mass density ([1]; 288.15 K) | speed of sound ([1]; 288.15 K) [m/s] | viscosity ([1]; 288.15 K) [mPa·s] | mass density ([1]; 293.15 K) | speed of sound ([1]; 293.15 K) [m/s] | viscosity ([1]; 293.15 K) [mPa·s] | mass density ([1]; 298.15 K) | speed of sound ([1]; 298.15 K) [m/s] | viscosity ([1]; 298.15 K) [mPa·s] | mass density ([1]; 303.15 K) | speed of sound ([1]; 303.15 K) | viscosity ([1]; 303.15 K) [mPa·s] | viscosity ([2]; 288.15 K, x2 = 0) [mPa·s] | mass density ([2]; 288.15 K, x2 = 0) [kg/m3] | speed of sound ([2]; 288.15 K, x2 = 0) [m/s] | viscosity ([2]; 293.15 K, x2 = 0) [mPa·s] | mass density ([2]; 293.15 K, x2 = 0) [kg/m3] | speed of sound ([2]; 293.15 K, x2 = 0) [m/s] | viscosity ([2]; 298.15 K, x2 = 0) [mPa·s] | mass density ([2]; 298.15 K, x2 = 0) [kg/m3] | other results |
| --- | --- | --- | --- | --- | --- | --- | --- | --- | --- | --- | --- | --- | --- | --- | --- | --- | --- | --- | --- | --- | --- |
| Cc1ccccc1 [toluene] | 871.412 ± 0.33 kg/m3 | 1350 ± 5.4 | 0.63 ± 0.013 | 866.874 ± 0.34 kg/m3 | 1327.2 ± 5.4 | 0.588 ± 0.012 | 862.2 ± 0.35 kg/m3 | 1305.4 ± 5.3 | 0.556 ± 0.011 | 857.464 ± 0.35 kg/m3 | 1283.8 ± 5.2 m/s | 0.523 ± 0.011 | – | – | – | – | – | – | – | – | – |
| Cc1cc(C)cc(C)c1 [1,3,5-trimethylbenzene] | 869.169 ± 0.42 kg/m3 | 1377.5 ± 5.6 | 0.754 ± 0.023 | 865.072 ± 0.43 kg/m3 | 1357 ± 5.5 | 0.705 ± 0.021 | 861.062 ± 0.44 kg/m3 | 1336.9 ± 5.5 | 0.661 ± 0.02 | 856.95 ± 0.44 kg/m3 | 1316.8 ± 5.4 m/s | 0.621 ± 0.019 | – | – | – | – | – | – | – | – | – |
| c1ccccc1 [benzene] | 884.184 ± 0.35 kg/m3 | 1347.2 ± 5.5 | 0.709 ± 0.015 | 877.43 ± 0.36 kg/m3 | 1323.3 ± 5.4 | 0.648 ± 0.013 | 873.58 ± 0.36 kg/m3 | 1299.7 ± 5.3 | 0.604 ± 0.012 | 868.174 ± 0.37 kg/m3 | 1276.4 ± 5.2 m/s | 0.571 ± 0.012 | – | – | – | – | – | – | – | – | – |
| Cc1cccc(C)c1 [1,3-dimethylbenzene] | 868.317 ± 0.37 kg/m3 | 1362.6 ± 5.5 | 0.666 ± 0.014 | 864.049 ± 0.38 kg/m3 | 1357 ± 25 | 0.619 ± 0.013 | 859.767 ± 0.38 kg/m3 | 1321 ± 5.4 | 0.581 ± 0.012 | 855.469 ± 0.39 kg/m3 | 1300.3 ± 5.3 m/s | 0.552 ± 0.011 | – | – | – | – | – | – | – | – | – |
| Cc1ccc(C)cc1 [1,4-dimethylbenzene] | 865.253 ± 0.37 kg/m3 | 1352 ± 5.5 | 0.701 ± 0.021 | 860.917 ± 0.38 kg/m3 | 1331.1 ± 5.4 | 0.65 ± 0.02 | 856.617 ± 0.39 kg/m3 | 1310 ± 5.3 | 0.611 ± 0.018 | 852.255 ± 0.39 kg/m3 | 1289.7 ± 5.3 m/s | 0.576 ± 0.017 | – | – | – | – | – | – | – | – | – |
| Cc1ccccc1 [toluene] + COc1ccccc1 | – | – | – | – | – | – | – | – | – | – | – | – | 0.63 ± 0.013 | 871.412 ± 0.33 | 1350 ± 5.4 | 0.588 ± 0.012 | 866.874 ± 0.34 | 1327.2 ± 5.4 | 0.556 ± 0.011 | 862.2 ± 0.35 | speed of sound ([2]; 298.15 K, x2 = 0): 1305.4 ± 5.3 m/s; viscosity ([2]; 303.15 K, x2 = 0): 0.523 ± 0.011 mPa·s; mass density ([2]; 303.15 K, x2 = 0): 857.464 ± 0.35 kg/m3; speed of sound ([2]; 303.15 K, x2 = 0): 1283.8 ± 5.2 m/s |
| Cc1ccccc1C [1,2-dimethylbenzene] + COc1ccccc1 | – | – | – | – | – | – | – | – | – | – | – | – | 0.871 ± 0.018 | 883.285 ± 0.41 | 1390.3 ± 5.6 | 0.81 ± 0.017 | 879.083 ± 0.41 | 1369.7 ± 5.6 | 0.756 ± 0.016 | 875.532 ± 0.42 | speed of sound ([2]; 298.15 K, x2 = 0): 1349.4 ± 5.5 m/s; viscosity ([2]; 303.15 K, x2 = 0): 0.708 ± 0.015 mPa·s; mass density ([2]; 303.15 K, x2 = 0): 870.726 ± 0.42 kg/m3; speed of sound ([2]; 303.15 K, x2 = 0): 1328.3 ± 5.4 m/s |
| Cc1ccc(C)cc1 [1,4-dimethylbenzene] + COc1ccccc1 | – | – | – | – | – | – | – | – | – | – | – | – | 0.701 ± 0.021 | 865.253 ± 0.37 | 1352 ± 5.5 | 0.65 ± 0.02 | 860.917 ± 0.38 | 1331.1 ± 5.4 | 0.611 ± 0.018 | 856.617 ± 0.39 | speed of sound ([2]; 298.15 K, x2 = 0): 1310 ± 5.3 m/s; viscosity ([2]; 303.15 K, x2 = 0): 0.576 ± 0.017 mPa·s; mass density ([2]; 303.15 K, x2 = 0): 852.255 ± 0.39 kg/m3; speed of sound ([2]; 303.15 K, x2 = 0): 1289.7 ± 5.3 m/s |
| COc1ccccc1 [anisole] + Cc1cc(C)cc(C)c1 | – | – | – | – | – | – | – | – | – | – | – | – | – | – | – | – | – | – | – | – | viscosity ([2]; 288.15 K, x1 = 1): 1.188 ± 0.036 mPa·s; mass density ([2]; 288.15 K, x1 = 1): 998.44 ± 0.23 kg/m3; speed of sound ([2]; 288.15 K, x1 = 1): 1449.1 ± 5.8 m/s; viscosity ([2]; 293.15 K, x1 = 1): 1.084 ± 0.033 mPa·s; mass density ([2]; 293.15 K, x1 = 1): 993.651 ± 0.23 kg/m3; speed of sound ([2]; 293.15 K, x1 = 1): 1428.5 ± 5.7 m/s; viscosity ([2]; 298.15 K, x1 = 1): 1.017 ± 0.031 mPa·s; mass density ([2]; 298.15 K, x1 = 1): 989.106 ± 0.24 kg/m3; speed of sound ([2]; 298.15 K, x1 = 1): 1408 ± 5.7 m/s; viscosity ([2]; 303.15 K, x1 = 1): 0.931 ± 0.028 mPa·s; mass density ([2]; 303.15 K, x1 = 1): 984.37 ± 0.25 kg/m3; speed of sound ([2]; 303.15 K, x1 = 1): 1386.7 ± 5.6 m/s |
| Cc1cccc(C)c1 [1,3-dimethylbenzene] + COc1ccccc1 | – | – | – | – | – | – | – | – | – | – | – | – | 0.666 ± 0.014 | 868.317 ± 0.37 | 1362.6 ± 5.5 | 0.619 ± 0.013 | 864.049 ± 0.38 | 1343.4 ± 5.4 | 0.581 ± 0.012 | 859.767 ± 0.38 | speed of sound ([2]; 298.15 K, x2 = 0): 1321 ± 5.4 m/s; viscosity ([2]; 303.15 K, x2 = 0): 0.552 ± 0.011 mPa·s; mass density ([2]; 303.15 K, x2 = 0): 855.469 ± 0.39 kg/m3; speed of sound ([2]; 303.15 K, x2 = 0): 1300.3 ± 5.3 m/s |
| c1ccccc1 [benzene] + COc1ccccc1 | – | – | – | – | – | – | – | – | – | – | – | – | 0.709 ± 0.015 | 884.184 ± 0.35 | 1347.2 ± 5.5 | 0.648 ± 0.013 | 877.43 ± 0.36 | 1323.3 ± 5.4 | 0.604 ± 0.012 | 873.58 ± 0.36 | speed of sound ([2]; 298.15 K, x2 = 0): 1299.7 ± 5.3 m/s; viscosity ([2]; 303.15 K, x2 = 0): 0.571 ± 0.012 mPa·s; mass density ([2]; 303.15 K, x2 = 0): 868.174 ± 0.37 kg/m3; speed of sound ([2]; 303.15 K, x2 = 0): 1276.4 ± 5.2 m/s |
| COc1ccccc1 [anisole] | 998.441 ± 0.23 kg/m3 and 998.44 ± 0.23 kg/m3 | 1449.1 ± 5.8 | 1.188 ± 0.024 | 993.649 ± 0.23 kg/m3 and 993.653 ± 0.23 kg/m3 and 993.651 ± 0.23 kg/m3 | 1428.5 ± 5.7 | 1.084 ± 0.022 | 989.106 ± 0.24 kg/m3 [middle of 4 runs] | 1408 ± 5.7 | 1.017 ± 0.021 | 984.372 ± 0.24 kg/m3 and 984.37 ± 0.25 kg/m3 and 984.374 ± 0.24 kg/m3 | 1387.7 ± 5.6 m/s and 1386.7 ± 5.6 m/s | 0.931 ± 0.019 | – | – | – | – | – | – | – | – | – |
| Cc1ccccc1C [1,2-dimethylbenzene] | 883.285 ± 0.41 kg/m3 | 1390.3 ± 5.6 | 0.871 ± 0.018 | 879.083 ± 0.41 kg/m3 | 1369.7 ± 5.6 | 0.81 ± 0.017 | 875.532 ± 0.42 kg/m3 | 1349.4 ± 5.5 | 0.756 ± 0.016 | 870.726 ± 0.42 kg/m3 | 1328.3 ± 5.4 m/s | 0.708 ± 0.015 | – | – | – | – | – | – | – | – | – |
